{
  "source": "patent US20070054886A1",
  "about": "“Ras antagonists for treating neurodegenerative disorders” (RAMOT AT TEL AVIV UNIVERSITY, LTD., priority 2003, published 2007)",
  "system": "rats subjected to closed head injury (CHI)",
  "assay": "Neuroprotection, rat CHI model (NSS)",
  "type": "in vivo",
  "experimental": "Sabra (strain of the Hebrew University) rats (200-220 gr) were used. A weight (200 g) was dropped on the cone fixed on the exposed skull at the site (frontal left cortex) designated for injury (from a height of 20 cm), resulting in a focal injury. A maximal Neurological Severity Score (NSS) of 17 indicates severe neurological dysfunction, with failure of all tasks, whereas a score of zero is achieved by healthy uninjured animals. The NSS at 1 h after trauma reflects the initial severity of injury and is inversely correlated with neurological outcome. […] To assess the effect of FTS on neurological recovery, rats were randomly assigned to either vehicle or FTS treatment, given immediately after the initial NSS evaluation (at 1 hr after CHI). These assessments were performed by an observer blinded to the kind of treatment the animals have received. The extent of recovery (ΔNSS) was calculated as the difference between NSS at 1 hr and that at any later time point: ΔNSS (at time t)=NSS (1 h)−NSS (t).\nThus, the greater ΔNSS reflects greater recovery, and this parameter serves as a tool for evaluation of drug effects.",
  "key": {"[1]": {"conditions": "FTS 5 mg/kg bw ip 1 h after CHI, mean ± SD of 7 rats"}},
  "data": [
    {"compound": "CC(C)=CCC/C(C)=C/CC/C(C)=C/CSc1ccccc1C(=O)O", "note": "[FTS, farnesyl-thiosalicylic acid]", "values": [
      {"measurement": "Neurological Severity Score (NSS) 1 h", "setting": "1 h after CHI, before treatment (baseline), maximal score 17, mean ± SD of 7 rats", "value": "9.71 ± 1.97"},
      {"measurement": "ΔNSS = NSS (1 h) − NSS (time), 24 h", "setting": "[1]", "value": "1.86 ± 1.34"},
      {"measurement": "ΔNSS = NSS (1 h) − NSS (time), 3 d", "setting": "[1]", "value": "3.00 ± 1.29"},
      {"measurement": "ΔNSS = NSS (1 h) − NSS (time), 7 d", "setting": "FTS 5 mg/kg bw ip 1 h after CHI, mean ± SD of 7 rats, p = 0.019 vs control", "value": "5.14 ± 1.07"}
    ]}
  ]
}
